Laboratory results from patent US12590066B2, “Fused-heterocyclyl-carbonohydrazonoyl dicyanide compounds and use thereof” (KOREA INSTITUTE OF SCIENCE AND TECHNOLOGY, priority 2020, dated 2026).

Assays:
tau protein = molecular target: T1, tau protein (Homo sapiens, UniProt P10636); test: Tau-BiFC cell model, inhibition of Forskolin-induced tau protein aggregation; type: cell-based; settings: Forskolin 30 μM, 48 hours; for Tau BiFC in cells Response (% @10 μM): 10 μM compound, Forskolin-only group = 100% tau protein-aggregated state; for IC50: tau-BiFC cells
T1 construct: BiFC fluorescent-protein fragments (type and halves not specified); expressed in transfected cells
T1 sequence (P10636 1-441 isoform P10636-8): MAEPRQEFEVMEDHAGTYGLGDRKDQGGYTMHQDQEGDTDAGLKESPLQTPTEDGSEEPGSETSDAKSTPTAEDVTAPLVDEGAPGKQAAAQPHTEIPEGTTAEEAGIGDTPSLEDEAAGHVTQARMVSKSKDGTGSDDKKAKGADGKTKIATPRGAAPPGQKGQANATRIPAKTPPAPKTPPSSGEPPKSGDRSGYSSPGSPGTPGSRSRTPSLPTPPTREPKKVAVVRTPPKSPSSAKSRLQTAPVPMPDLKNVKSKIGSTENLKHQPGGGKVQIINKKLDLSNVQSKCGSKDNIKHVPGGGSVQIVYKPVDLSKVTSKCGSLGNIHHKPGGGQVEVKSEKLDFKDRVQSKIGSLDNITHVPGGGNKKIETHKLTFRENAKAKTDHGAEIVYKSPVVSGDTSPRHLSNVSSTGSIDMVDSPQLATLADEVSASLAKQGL
How it was run: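 Tau-BiFC cells co-treated 48 h with 30 μM forskolin and compounds (1, 3, 10 μM screen; 0.01–30 μM dose-response). BiFC fluorescence normalized to forskolin-only (100% aggregation) minus untreated gives aggregation inhibition and IC50; viability as Hoechst-stained nuclei count relative to forskolin-only.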

CYP2C9 = molecular target: T2, CYP2C9 (Homo sapiens, UniProt P11712); test: Inhibitory effect on CYP coenzyme activity, human liver microsomes; type: in vitro ADME; settings: 10 μM compound, human liver microsomes 0.25 mg/mL, substrate diclofenac, 15 minutes
T2 construct: human liver microsomes (0.25 mg/mL); from tissue; host or cells: human liver microsomes
T2 sequence (P11712 whole entry): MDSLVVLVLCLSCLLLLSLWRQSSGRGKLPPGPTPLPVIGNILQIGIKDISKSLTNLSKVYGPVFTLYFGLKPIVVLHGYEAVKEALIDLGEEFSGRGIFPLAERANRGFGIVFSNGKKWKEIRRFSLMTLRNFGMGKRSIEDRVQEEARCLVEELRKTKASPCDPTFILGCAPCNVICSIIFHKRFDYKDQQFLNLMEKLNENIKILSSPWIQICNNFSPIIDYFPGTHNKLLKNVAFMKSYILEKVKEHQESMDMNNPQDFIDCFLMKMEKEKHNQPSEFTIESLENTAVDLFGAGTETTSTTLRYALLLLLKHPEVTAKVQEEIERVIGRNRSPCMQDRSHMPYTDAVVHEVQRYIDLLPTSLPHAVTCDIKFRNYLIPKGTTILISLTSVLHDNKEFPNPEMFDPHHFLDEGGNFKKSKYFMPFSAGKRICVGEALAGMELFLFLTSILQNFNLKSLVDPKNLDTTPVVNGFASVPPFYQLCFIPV
How it was run: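 Activity (% of vehicle control) from LC-MS/MS MRM quantitation of substrate metabolites. HLM 0.25 mg/mL, pH 7.4 phosphate, cocktail of phenacetin 50 μM, diclofenac 10 μM, S-mephenytoin 100 μM, dextromethorphan 5 μM, midazolam 2.5 μM; test compound 10 μM; 37 °C, 5 min preincubation plus 15 min with NADPH system.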

CYP3A4 = molecular target: T3, CYP3A4 (Homo sapiens, UniProt P08684); test: as above; type: in vitro ADME; settings: 10 μM compound, human liver microsomes 0.25 mg/mL, substrate midazolam, 15 minutes
T3 construct: human liver microsomes (0.25 mg/mL); from tissue; host or cells: human liver microsomes
T3 sequence (P08684 whole entry): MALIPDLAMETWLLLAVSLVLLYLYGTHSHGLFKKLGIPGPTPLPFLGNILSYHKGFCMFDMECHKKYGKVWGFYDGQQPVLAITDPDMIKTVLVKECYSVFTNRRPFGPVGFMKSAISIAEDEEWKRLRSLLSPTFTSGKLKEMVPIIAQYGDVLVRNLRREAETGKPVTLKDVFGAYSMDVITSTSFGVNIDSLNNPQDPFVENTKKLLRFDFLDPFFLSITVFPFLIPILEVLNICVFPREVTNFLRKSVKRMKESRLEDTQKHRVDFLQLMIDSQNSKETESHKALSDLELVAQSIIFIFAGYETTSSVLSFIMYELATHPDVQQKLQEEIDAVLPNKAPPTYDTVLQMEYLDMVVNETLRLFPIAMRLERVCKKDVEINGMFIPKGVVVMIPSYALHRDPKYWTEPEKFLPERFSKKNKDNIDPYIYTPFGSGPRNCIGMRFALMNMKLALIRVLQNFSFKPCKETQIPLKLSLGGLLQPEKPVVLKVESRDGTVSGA
How it was run: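 Cocktail inhibition: HLM 0.25 mg/mL, 0.1 M PO4 pH 7.4, 37 °C; 5 min preinc., then 15 min + NADPH regen.; cpd 10 μM; probes phenacetin/diclofenac/S-mephenytoin/dextromethorphan/midazolam at 50/10/100/5/2.5 μM; LC-MS/MS MRM; % remaining activity vs no-compound control.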

[1] = Liver microsome stability; type: in vitro ADME; settings: 1 μM compound, 37° C., 30 minutes, NADPH; for Human (%) amount of substrate remaining after the reaction: human liver microsomes 0.25 mg/mL; for Mouse (%) amount of substrate remaining after the reaction: mouse liver microsomes 0.25 mg/mL; for Rat (%) amount of substrate remaining after the reaction: rat liver microsomes 0.25 mg/mL
How it was run: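 Human, dog, rat and mouse liver microsomes (0.25 mg/mL) with 1 μM compound in 0.1 M phosphate buffer pH 7.4, preincubated 5 min at 37° C, then incubated 30 min at 37° C with NADPH-generating system. Reaction stopped with acetonitrile plus internal standard; remaining parent quantified by LC-MS/MS.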

| Compound | Tau BiFC in cells Response (% @10 μM) (tau protein) [%] | IC50 (tau protein) [nM] | CYP2C9 coenzyme activity (%) with respect to control group not treated (CYP2C9) [%] | CYP3A4 coenzyme activity (%) with respect to control group not treated (CYP3A4) [%] | Human (%) amount of substrate remaining after the reaction [1] [%] | Mouse (%) amount of substrate remaining after the reaction [1] [%] | Rat (%) amount of substrate remaining after the reaction [1] [%] | Dog (%) amount of substrate remaining after the reaction ([1]; dog liver microsomes 0.25 mg/mL) [%] |
| --- | --- | --- | --- | --- | --- | --- | --- | --- |
| CC(C)n1c(=O)n(C2CC2)c2ccc(NN=C(C#N)C#N)cc21 [Compound 42, (1-cyclopropyl-3-isopropyl-2-oxo-2,3-dihydro-1H-benzo[d]imidazol-5-yl)carbonohydrazonoyl dicyanide] | −52 | 80 | 59.6 | 93.5 | 81.7 | 63.4 | 78.7 |  |
| CCn1c(=O)n(C)c2ccc(NN=C(C#N)C#N)cc21 [Compound 35, (3-ethyl-1-methyl-2-oxo-2,3-dihydro-1H-benzo[d]imidazol-5-yl)carbonohydrazonoyl dicyanide] | −44 | 10 | 72.5 | >100 | 98.7 | 87.1 | 86 |  |
| CC(C)n1c(=O)sc2cc(NN=C(C#N)C#N)ccc21 [Compound 18, (3-isopropyl-2-oxo-2,3-dihydrobenzo[d]thiazol-6-yl)carbonohydrazonoyl dicyanide] | 0 | 40 | 7.5 | 78.3 | 85.1 | 71.3 | 70.8 | 93.8 |
